Values of other authors as cited in patent US11478463B2, “Mast cell stabilizers for treatment of chronic inflammatory conditions” (Emergo Therapeutics, Inc., priority 2016, dated 2022).

Columns and labels:
[1] = patients
[2] = in vivo
[3] = ketotifen 2 mg per dose, twice daily

half-life relative to ketotifen [2]	steady state level [3] [ng/mL]	time to approach steady state level [3]	SMILES	drowsiness [1]
longer half-life than ketotifen	–	–	O=C1Cc2ccccc2C(=C2CCNCC2)c2ccsc21 [norketotifen]	does not cause drowsiness
–	~2	at least 2.5 days	CN1CCC(=C2c3ccccc3CC(=O)c3sccc32)CC1 [ketotifen]	causes extreme drowsiness in many patients
